Laboratory results from US20020065219A1, “Water soluble thiazolyl peptide derivatives” (priority 2000, published 2002).
Values after ≈ are worked out from the molar mass of the structure shown. Like-named read-outs stand apart in the source and are kept apart here.

Legend:
[1] = tested on: Staphylococcus aureus A15090; assay: MIC, broth micro dilution assay (NCCLS); type: cell-based; details: for MIC: Staphylococcus aureus, A15090, 18 h, read-out: MIC (μg/mL) against Staphylococcus aureus A15090
[2] = tested on: Streptococcus pneumoniae A28272; assay: MIC, broth micro dilution assay (NCCLS); type: cell-based; details: for MIC: Streptococcus pneumoniae, A28272, 18 h, read-out: MIC (μg/mL) against Streptococcus pneumoniae A28272
[3] = tested on: Enterococcus faecalis A20688; assay: MIC, broth micro dilution assay (NCCLS); type: cell-based; details: for MIC: Enterococcus faecalis, A20688, 18 h, read-out: MIC (μg/mL) against Enterococcus faecalis A20688
[4] = tested on: Staphylococcus aureus A15090; assay: animal or person; type: in vivo, female ICR mice; details: A15090, in Mus musculus, iv, 1 h, read-out: PD50 (dose which protects 50% of mice from mortality)
[5] = Mueller-Hinton medium, 35° C., 18 hours
[6] = 50% Mueller-Hinton medium and 50% Todd Hewitt medium, 35° C., 18 hours

| Structure (SMILES) | MIC [1] [µg/mL] | MIC [2] [µg/mL] | MIC [3] [µg/mL] | ED50 [4] [mg/kg] | MIC (μg/mL) against Staphylococcus aureus A15090 [1] [µg/mL] | MIC (μg/mL) against Streptococcus pneumoniae A28272 [2] [µg/mL] | MIC (μg/mL) against Enterococcus faecalis A20688 [3] [µg/mL] | MIC (μg/mL) against Staphylococcus aureus A15090 [1, 5] [µg/mL] | MIC (μg/mL) against Streptococcus pneumoniae A28272 [2, 6] [µg/mL] | MIC (μg/mL) against Enterococcus faecalis A20688 [3, 5] [µg/mL] |
| --- | --- | --- | --- | --- | --- | --- | --- | --- | --- | --- |
| CO/C(C)=C1/NC(=O)C(C(C)O)NC(=O)c2csc(n2)-c2cc(O)c(-c3nc(C(=O)NC(CN(C)CCO)C(N)=O)cs3)nc2-c2csc(n2)C2COC(=O)c3c4c5c(cccc5n3O)COC(=O)C(O[C@H]3C[C@](C)(O)[C@H](N(C)C)[C@H](C)O3)C(OC4)C(NC(=O)c3csc1n3)c1nc(cs1)C(=O)N2 (some centres unmarked) [Example 2] | 0.015 (≈ 0.00992 µM) | 0.015 (≈ 0.00992 µM) | 0.06 (≈ 0.0397 µM) | 0.19 to 7.3 | – | – | – | – | – | – |
| CO/C(C)=C1/NC(=O)C([C@@H](C)O)NC(=O)c2csc(n2)-c2cc(O)c(-c3nc(C(=O)NC(CNCCCn4ccnc4)C(N)=O)cs3)nc2-c2csc(n2)[C@@H]2COC(=O)c3c4c5c(cccc5n3O)COC(=O)[C@@H](O[C@H]3C[C@](C)(O)[C@H](N(C)C)[C@H](C)O3)[C@H](OC4)[C@H](NC(=O)c3csc1n3)c1nc(cs1)C(=O)N2 (some centres unmarked) [Example 5] | 1 (≈ 0.64 µM) | 0.03 (≈ 0.0192 µM) | 1 (≈ 0.64 µM) | 0.19 to 7.3 | – | – | – | – | – | – |
| CO/C(C)=C1/NC(=O)C(C(C)O)NC(=O)c2csc(n2)-c2cc(O)c(-c3nc(C(=O)NC(CN4CCN(C)CC4)C(N)=O)cs3)nc2-c2csc(n2)C2COC(=O)c3c4c5c(cccc5n3O)COC(=O)C(O[C@H]3C[C@](C)(O)[C@H](N(C)C)[C@H](C)O3)C(OC4)C(NC(=O)c3csc1n3)c1nc(cs1)C(=O)N2 (some centres unmarked) [Example 1] | 0.25 (≈ 0.163 µM) | 0.125 (≈ 0.0813 µM) | 0.5 (≈ 0.325 µM) | 0.19 to 7.3 | – | – | – | – | – | – |
| CO/C(C)=C1/NC(=O)C(C(C)O)NC(=O)c2csc(n2)-c2cc(O)c(-c3nc(C(=O)NC(CN(C)C)C(N)=O)cs3)nc2-c2csc(n2)C2COC(=O)c3c4c5c(cccc5n3O)COC(=O)C(O[C@H]3C[C@](C)(O)[C@H](N(C)C)[C@H](C)O3)C(OC4)C(NC(=O)c3csc1n3)c1nc(cs1)C(=O)N2 (some centres unmarked) [Example 7] | 0.06 (≈ 0.0405 µM) | 0.03 (≈ 0.0202 µM) | 0.125 (≈ 0.0843 µM) | 0.19 to 7.3 | – | – | – | – | – | – |
| CO/C(C)=C1/NC(=O)C(C(C)O)NC(=O)c2csc(n2)-c2cc(O)c(-c3nc(C(=O)NC(CN(C)CCN(C)C)C(N)=O)cs3)nc2-c2csc(n2)C2COC(=O)c3c4c5c(cccc5n3O)COC(=O)C(O[C@H]3C[C@](C)(O)[C@H](N(C)C)[C@H](C)O3)C(OC4)C(NC(=O)c3csc1n3)c1nc(cs1)C(=O)N2 (some centres unmarked) [Example 9] | 0.06 (≈ 0.039 µM) | 0.007 (≈ 0.00455 µM) | 0.5 (≈ 0.325 µM) | 0.19 to 7.3 | – | – | – | – | – | – |
| CCN(CC)CCN(C)CC(NC(=O)c1csc(-c2nc3c(cc2O)-c2nc(cs2)C(=O)NC(C(C)O)C(=O)N/C(=C(\C)OC)c2nc(cs2)C(=O)NC2c4nc(cs4)C(=O)NC(COC(=O)c4c5c6c(cccc6n4O)COC(=O)C(O[C@H]4C[C@](C)(O)[C@H](N(C)C)[C@H](C)O4)C2OC5)c2nc-3cs2)n1)C(N)=O (some centres unmarked) [Example 6] | 0.125 (≈ 0.0797 µM) | 0.03 (≈ 0.0191 µM) | 2 (≈ 1.28 µM) | 0.19 to 7.3 | – | – | – | – | – | – |
| CO/C(C)=C1/NC(=O)C([C@@H](C)O)NC(=O)c2csc(n2)-c2cc(O)c(-c3nc(C(=O)NC(CN4CCOCC4)C(N)=O)cs3)nc2-c2csc(n2)[C@@H]2COC(=O)c3c4c5c(cccc5n3O)COC(=O)[C@@H](O[C@H]3C[C@](C)(O)[C@H](N(C)C)[C@H](C)O3)[C@@H](OC4)[C@H](NC(=O)c3csc1n3)c1nc(cs1)C(=O)N2 (some centres unmarked) [Example 8] | 0.015 (≈ 0.00984 µM) | 0.003 (≈ 0.00197 µM) | 0.125 (≈ 0.082 µM) | 0.19 to 7.3 | – | – | – | – | – | – |
| CO/C(C)=C1/NC(=O)C(C(C)O)NC(=O)c2csc(n2)-c2cc(O)c(-c3nc(C(=O)NC(CNCCc4ccccn4)C(N)=O)cs3)nc2-c2csc(n2)C2COC(=O)c3c4c5c(cccc5n3O)COC(=O)C(O[C@H]3C[C@](C)(O)[C@H](N(C)C)[C@H](C)O3)C(OC4)C(NC(=O)c3csc1n3)c1nc(cs1)C(=O)N2 (some centres unmarked) [Example 3] | 1 (≈ 0.641 µM) | 0.25 (≈ 0.16 µM) | 1 (≈ 0.641 µM) | 0.19 to 7.3 | – | – | – | – | – | – |
| CNC(=O)On1c2c3c4c(cccc41)COC(=O)C(OC1CC(C)(O)C(N(C)C)C(C)O1)C(OC3)C1NC(=O)c3csc(n3)/C(=C(/C)OC)NC(=O)C(C(C)O)NC(=O)c3csc(n3)-c3cc(O)c(-c4nc(C(=O)NC(CN(CCN(C)C)C(=O)NC)C(N)=O)cs4)nc3-c3csc(n3)C(COC2=O)NC(=O)c2csc1n2 (centres unmarked) [Example 111] | – | – | – | – | 1.0 (≈ 0.61 µM) | 0.06 (≈ 0.0366 µM) | 2.0 (≈ 1.22 µM) | – | – | – |
| COC(C)=C1NC(=O)C(C(C)O)NC(=O)c2csc(n2)-c2cc(O)c(-c3nc(C(=O)NC(CN4CCCC4C(C)O)C(N)=O)cs3)nc2-c2csc(n2)C2COC(=O)c3c4c5c(cccc5n3O)COC(=O)C(OC3CC(C)(O)C(N(C)C)C(C)O3)C(OC4)C(NC(=O)c3csc1n3)c1nc(cs1)C(=O)N2 (centres unmarked) [Example 88] | – | – | – | – | – | – | – | 0.007 (≈ 0.00451 µM) | 0.03 (≈ 0.0193 µM) | 0.06 (≈ 0.0386 µM) |
| COC(C)=C1NC(=O)C(C(C)O)NC(=O)c2csc(n2)-c2cc(O)c(-c3nc(C(=O)NC(CN(C)CCCNc4ccncc4)C(N)=O)cs3)nc2-c2csc(n2)C2COC(=O)c3c4c5c(cccc5n3O)COC(=O)C(OC3CC(C)(O)C(N(C)C)C(C)O3)C(OC4)C(NC(=O)c3csc1n3)c1nc(cs1)C(=O)N2 (centres unmarked) [Example 83] | – | – | – | – | – | – | – | 1.0 (≈ 0.624 µM) | 0.25 (≈ 0.156 µM) | 0.5 (≈ 0.312 µM) |
| CCC(O)C1CCCN1CC(NC(=O)c1csc(-c2nc3c(cc2O)-c2nc(cs2)C(=O)NC(C(C)O)C(=O)NC(=C(C)OC)c2nc(cs2)C(=O)NC2c4nc(cs4)C(=O)NC(COC(=O)c4c5c6c(cccc6n4O)COC(=O)C(OC4CC(C)(O)C(N(C)C)C(C)O4)C2OC5)c2nc-3cs2)n1)C(N)=O (centres unmarked) [Example 87] | – | – | – | – | – | – | – | 0.015 (≈ 0.00957 µM) | 0.007 (≈ 0.00447 µM) | 0.06 (≈ 0.0383 µM) |
| COC(C)=C1NC(=O)C(C(C)O)NC(=O)c2csc(n2)-c2cc(O)c(-c3nc(C(=O)NC(CN4CCCC4C(C)(C)O)C(N)=O)cs3)nc2-c2csc(n2)C2COC(=O)c3c4c5c(cccc5n3O)COC(=O)C(OC3CC(C)(O)C(N(C)C)C(C)O3)C(OC4)C(NC(=O)c3csc1n3)c1nc(cs1)C(=O)N2 (centres unmarked) [Example 89] | – | – | – | – | – | – | – | 0.003 (≈ 0.00191 µM) | 0.007 (≈ 0.00447 µM) | 0.03 (≈ 0.0191 µM) |
| COCC(Cn1ccnc1)SCC(NC(=O)c1csc(-c2nc3c(cc2O)-c2nc(cs2)C(=O)NC(C(C)O)C(=O)NC(=C(C)OC)c2nc(cs2)C(=O)NC2c4nc(cs4)C(=O)NC(COC(=O)c4c5c6c(cccc6n4O)COC(=O)C(OC4CC(C)(O)C(N(C)C)C(C)O4)C2OC5)c2nc-3cs2)n1)C(N)=O (centres unmarked) [Example 80] | – | – | – | – | – | – | – | 0.25 (≈ 0.155 µM) | 0.03 (≈ 0.0186 µM) | 0.125 (≈ 0.0776 µM) |
